How the values were obtained:
[1] = system: RSV-A2; assay: RT-qPCR assay, RSV-A2 in Vero cells; format: cell-based; details: human respiratory syncytial virus
Method: (§1) HEp-2, Vero, and BHK were seeded at 8,000 cells per well (cpw) in growth medium (Dulbecco’s Modified Eagle Medium (DMEM) with 1% GlutaMAX, 1% Penicillin/Streptomycin (P/S), 1% Non-Essential Amino Acids (NEAA), 10% Fetal Bovine Serum (FBS)) or (Minimum Essential Medium (MEM) with 10% FBS, 1% NEAA, 1% P/S) or (Eagle’s Minimum Essential Medium with L-Glutamine, with 10% FBS, 1% P/S) respectively. A549 seeded at 3,000 cpw in F-12K Kaighn’s Modification nutrient mixture with 10% FBS, 1% NEAA, 1% P/S. Cells seeded at time of infection in 96-well plates, final well volume 100μL. Compounds suspended in DMSO, serially diluted and added to wells at 0.5% final DMSO concentration. Viral stocks stabilized with 25% sucrose, previously titered using plaque assay, were added at desired MOI. Sucrose added to cells-only control wells to match percent added with virus. Unless otherwise noted, RSV-A strains were tested at 0.1 MOI and incubated for 5 days in a 37°C, 5% CO2 humidified incubator, and RSV-B at 0.5 MOI for 6 days. Cytopathic effect (CPE) determined using ATPlite (Perkin Elmer) measured with Envision luminometer. For RT-qPCR, RNA was extracted from whole well using Ambion RNAqueous-96 Automated Kit, and RT-qPCR run using Applied Biosystems TaqMan RNA-to-CT 1-Step Kit. […] All EC50s were calculated using the XLFit four-parameter logistic model 200 in Microsoft Excel.

[2] = system: broad panel of other viruses; format: cell-based
[3] = system: RSV-A Long; assay: RT-qPCR assay, RSV-A Long in BHK cells; format: cell-based; details: human respiratory syncytial virus
[4] = system: RSV-A clinical isolates; assay: Susceptibility of USA-derived RSV-A clinical isolates; format: cell-based; details: human respiratory syncytial virus
Method: (§2) Serial dilutions of the compound were added to cells infected with RSV-A isolates at an MOI of 0.1 (except for isolate 629-9-2 at an MOI of 0.01) or RSV-B isolates at an MOI of 0.5 (expect for isolate 629-24/2007 at an MOI of 0.0044) and were treated for 5 or 6 days, respectively. […] This is consistent with the fact that the viral N protein, which is the putative target of the antiviral effect of EDP-938, is the most conserved RSV protein [11].
(§3) HEp-2, Vero, and BHK were seeded at 8,000 cells per well (cpw) in growth medium (Dulbecco’s Modified Eagle Medium (DMEM) with 1% GlutaMAX, 1% Penicillin/Streptomycin (P/S), 1% Non-Essential Amino Acids (NEAA), 10% Fetal Bovine Serum (FBS)) or (Minimum Essential Medium (MEM) with 10% FBS, 1% NEAA, 1% P/S) or (Eagle’s Minimum Essential Medium with L-Glutamine, with 10% FBS, 1% P/S) respectively. A549 seeded at 3,000 cpw in F-12K Kaighn’s Modification nutrient mixture with 10% FBS, 1% NEAA, 1% P/S. Cells seeded at time of infection in 96-well plates, final well volume 100μL. Compounds suspended in DMSO, serially diluted and added to wells at 0.5% final DMSO concentration. […] Cytopathic effect (CPE) determined using ATPlite (Perkin Elmer) measured with Envision luminometer. […] All EC50s were calculated using the XLFit four-parameter logistic model 200 in Microsoft Excel. […]

[5] = system: RSV-B VR-955 EDP-938 resistant populations; assay: Susceptibility of EDP-938 resistant RSV-B VR-955 populations; format: cell-based, respiratory syncytial virus
[6] = system: RSV-A Long; assay: RT-qPCR assay, RSV-A Long in Vero cells; format: cell-based; details: human respiratory syncytial virus
[7] = system: RSV-A clinical isolates; assay: RSV Virospot reduction assay (ViroClinics), RSV-A isolates from the Netherlands; format: cell-based; details: human respiratory syncytial virus, 10 RSV-A strains from the Netherlands
Method: To further expand testing against clinical isolates, the compound was assayed against a panel of 10 RSV-A and 10 RSV-B strains mainly isolated from children of age 2–200 weeks in the Netherlands.
RSV clinical isolates were obtained from Baylor University and Medical College of Wisconsin. MOI of 0.1 used for all clinical isolates except RSV-A 629-9-2 (0.01) and RSV-B 629-24/2007 (0.0044) due to low titer. Virospot reduction assay was run by ViroClinics (Rotterdam, the Netherlands) against 20 additional RSV clinical isolates.

[8] = system: RSV; assay: Single-round synchronized infection time-of-addition, RT-qPCR endpoint; format: cell-based, respiratory syncytial virus; details: HEp-2; MOI 3; cold-synchronized; 2x or 20x EC50; added 0-8 hpi; RT-qPCR at 24 hpi
Method: In order to help determine which step of the viral life cycle EDP-938 blocks multiple in vitro time-of-addition studies were performed. In the first study, EDP-938 was administered to cells infected with RSV-A Long at a MOI of 0.1 at 2 hours pre-infection (-2) or 2, 6, or 24 hours post-infection (hpi), and viral CPE evaluated 5 days later. […] A second time-of-addition study explored the ability of EDP-938 to protect not just a population experiencing a spreading infection, but individual cells already infected with RSV. Using a MOI of 3, which infects approximately 95% of all cells, virus was cold-adsorbed to the cells for 1 hour to synchronize infection before transfer to 37°C to induce fusion (marking the 0 hpi time point). Compound was added at times indicated and a 24 hpi RT-qPCR endpoint was employed to constrain viral replication cycle to a single complete cycle.
For single round infection synchronized infection 25,000 HEp-2 cpw seeded 1-day pre-infection. Plates brought to 4°C, viral infection at 3 MOI calculated for 30,000 cpw incubated at 4°C 1hr. Compound added to 0h plate and plates moved to 37°C. Compound added at 2h, 4h, 6h, and 8h post-incubation (when plates moved to 37°C) to appropriate plates. 24 hpi viral copies measured with RT-qPCR as described above.

[9] = system: RSV-A M37; assay: RT-qPCR assay, RSV-A M37 in primary HBECs; format: cell-based; details: human respiratory syncytial virus, primary HBEC
[10] = system: RSV-B clinical isolates; assay: Susceptibility of USA-derived RSV-B clinical isolates; format: cell-based; details: human respiratory syncytial virus
Method: as §2, §3

[11] = system: RSV-B VR-955; assay: RT-qPCR assay, RSV-B VR-955 in HEp-2 cells; format: cell-based; details: human respiratory syncytial virus
Method: as §1

[12] = system: RSV-B VR-955; assay: CPE assay, RSV-B VR-955 in A549 cells; format: cell-based; details: human respiratory syncytial virus
Method: as §1

[13] = 144 h, RSV-B VR-955 MOI 0.5, 6 days

Structure (SMILES): O=C1Nc2ccccc2C(c2ccccc2)=N[C@@H]1Nc1nnc(-c2ncc(C(F)(F)F)cc2N2CCOCC2)o1 [EDP-938]
- EC50 [1]: 0.091 µM
- EC90 [1]: 0.101 ± 0.0017 µM
- activity against a broad panel of other viruses [2]: did not demonstrate significant activity
- EC50 [3]: 16.8 µM
- EC50 [4]: 0.076 µM
- EC50 Fold Change vs. WT ([5]; RSV-B VR-955 Population 1, N: M109K, L139Q (dual WT/mutant population)): 42 fold
- EC50 Fold Change vs. WT ([5]; RSV-B VR-955 Population 2, N: M109T): 6.6 fold
- EC50 Fold Change vs. WT ([5]; RSV-B VR-955 Wild-Type): 1 fold
- EC50 [6]: 0.079 ± 0.012 µM
- EC90 [6]: 0.118 ± 0.025 µM
- EC50 [7]: 0.043 µM
- inhibition of viral RNA production by time of addition [8]: inhibited RNA production at all time points up to 8 hpi
- EC50 ([9]; 144 h, RSV-A M37 MOI 0.1, 6 days): 0.023 ± 0.014 µM
- EC90 ([9]; RSV-A M37): 0.036 ± 0.017 µM
- EC50 [10]: 0.121 µM
- EC50 [11, 13]: 0.11 ± 0.022 µM
- EC90 ([11]; RSV-B VR-955): 0.14 ± 0.024 µM
- EC50 [12, 13]: 0.072 ± 0.009 µM
- EC90 ([12]; RSV-B VR-955): 0.223 ± 0.09 µM

From article PMC7993833, “EDP-938, a novel nucleoprotein inhibitor of respiratory syncytial virus, demonstrates potent antiviral activities in vitro and in a non-human primate model” (PLoS Pathogens, 2021)
